Assay results as given in US4582844A, “Antithrombotic 4,5 di-t-butyl-imidazole derivatives” (Hoffmann-La Roche Inc., priority 1980, dated 1986).

Test system: Human platelet-rich plasma (blood platelets)
Assay: Collagen-induced blood platelet aggregation (aggregometer method of Born; maximum aggregation velocity)
Format: cell-based
Conditions: human citrated platelet-rich plasma, 10 min preincubation at 37° C., collagen fibrils
Protocol: The maximum aggregation velocity was taken as the test parameter and the effective concentration (EC50) was ascertained from dosage-activity curves.
Human platelet-rich plasma was obtained by centrifugation from citrated venous blood. The experiments were carried out with suspensions of the test substances in 0.9% sodium chloride. 0.18 ml of citrate plasma was treated with a 10 μl suspension of the test compound and incubated at 37° C. for 10 minutes, whereupon the aggregation was initiated by adding 10 μl of a suspension of collagen fibrils.

CC(C)(C)c1nc(-c2ccccc2)[nH]c1C(C)(C)C [4,5-Di-t-butyl-2-phenylimidazole, 4,5-di-t-butyl-2-phenylimidazole]
EC50: 600 nM

CC(C)(C)c1nc(-c2ccc(F)cc2)[nH]c1C(C)(C)C [4,5-Di-t-butyl-2-(4-fluorophenyl)-imidazole]
EC50: 500 nM

COc1cc(-c2nc(C(C)(C)C)c(C(C)(C)C)[nH]2)cc2c1OCO2 [4,5-di-t-butyl-2-(5-methoxy-3,4-methylenedioxyphenyl)-imidazole]
EC50: 14400 nM

CC(C)(C)c1nc(-c2ccc3c(c2)OCO3)[nH]c1C(C)(C)C [4,5-di-t-butyl-2-(3,4-methylenedioxyphenyl)-imidazole]
EC50: 550 nM

COc1cc(-c2nc(C(C)(C)C)c(C(C)(C)C)[nH]2)cc(OC)c1OC [4,5-di-t-butyl-2-(3,4,5-trimethoxyphenyl)-imidazole]
EC50: 720 nM
